Measurements taken from patent publication US20170028016A1, “METHODS OF TREATMENT OF C. DIFFICILE SPORES WITH RAMOPLANIN” (Nanotherapeutics, Inc., priority 2014, published 2017).
“Also recorded” adds a separate entry of the source.

Tests used:
[1] = tested on: C. difficile spores (ribotype 027); test: Antimicrobial survey: continuous exposure of spores in water for six days, spore counts by plating; conditions: 37 °C, D0-D6
[2] = tested on: C. difficile spores (ribotype 027); test: Longevity / persistence assay: 30 min ramoplanin exposure, six washes, storage in water to day 28, spore counts; assay type: cell-based, Clostridium difficile; conditions: for spore growth when plated undiluted: to day 28
Protocol: As above, C. difficile (027) was exposed to multiple doses of Ramoplanin (30 min/37 C) and to water, stored at 37 C (anaerobic), and sampled at days D0, D1 D7, D14, and D28. […] From each level at each time, three aliquots were taken (i.e. n=3 for each subsequent assay) and each washed 6 times before the spore resuspension. Each wash (100 only) and spore suspension (100, 10-1 10-2) were counted on NaTBA.

[3] = tested on: C. difficile spores (ribotype 027); test: Dose-dependent sporicidal assay: spores exposed to ramoplanin, washed 6 times, plated on NaTBA; assay type: cell-based, Clostridium difficile
Protocol: C. difficile exposure at three levels of ramoplanin (2, 300, 600 μg/mL) and to water was evaluated. […] The wash supernatant fluids (n=6/level) and the final spore suspensions (n=1/level) were counted by plating three 10-fold serial dilutions on NaTaurocholate Blood Agar (NaTBA). Each set of three counts were averaged and compared by t-test.

[4] = tested on: C. difficile spores (ribotype 027), exosporium; test: Dependency of activity on exosporium: intact versus stripped (processed) spores exposed to ramoplanin; assay type: cell-based, Clostridium difficile
Protocol: C. difficile (027) exposure (30 min/37 C) to multiple doses of ramoplanin and to water was evaluated. Following ramoplanin exposure for 30 minutes, sampling occurred at days D0, D1, D7, D14, and D28. Without wishing to be bound by any particular theory, sampling over time may characterize the duration of effect having clinical implication on the duration of oral therapy. From each level at each time point, three aliquots were taken (i.e. n=3 for each subsequent assay) and each washed 6 times before the spore re-suspension. Each wash (100 only) and spore suspension (100, 10-1 10-2) were counted on NaTBA and assayed for ramoplanin by a zone of inhibition assay using S. salivarius.
From this example, it appears that the absence of a spore exosporium diminishes the bactericidal effect of Ramoplanin. Following enzyme digest and sonication of spore prep (Cortes et. al.) to removal the exosporium, the spores were exposed (027) to single dose of Ramoplanin (600 mcg/mL) vs water for 30 min and sampled (supernatant and prep) at 1 time point (T0).
Spore exosporia were removed as described by Escobar-Cortes et al. 2013. Proteases and sonication specifically remove the exosporium layer of spores of C. difficile strain 630. […] Briefly, spores were washed four times by centrifugation (10 minutes at 10,000×g) and resuspended in deionized water followed by final resuspension in 15 mL of PBS and sonicated for 90 seconds. Three mL of 10% Sarkosyl (detergent) were added to each preparation and subsequently incubated 15 minutes at room temperature with rocking. Preparations were then centrifuged for 10 minutes at 10,000×g, and pellets were resuspended in 10 mL PBS with 0.1 mL of 1M Tris and 10 mg of lysozyme. Spores were rocked overnight at 37±2° C. and then sonicated for 90 seconds, passed through a 50% solution of sucrose using a swinging bucket rotor for 20 minutes at 4,000×g, and resuspended in a solution containing 3 mL PBS, 200 mM EDTA, 300 ng/mL Proteinase K and 1% Sarkosyl. The spores were further rocked at room temperature for 20 minutes and were passed through a 50% solution of sucrose as previously described by Sabja et al, Id. Next, the spores were washed in deionized water by two centrifugation steps for 10 minutes at 10,000×g and resuspended in deionized water; plating and incubation were carried out as described in the foregoing text.
Adherence of ramoplanin to C. difficile exosporium: In order to determine whether the exosporium was essential to the observed growth-inhibiting effects of ramoplanin, the exosporia were processed as described in Escobar-Cortes et al, 2013, resulting in spores with “stripped” exosporia, and then compared to unprocessed spores (with “intact” exosporia) under three separate conditions (all ramoplanin concentrations were 300 μg/mL): (1) ramoplanin exposure with no subsequent spore processing (i.e., “intact”), (2) ramoplanin exposure with subsequent spore processing (i.e., “stripped”), and (3) water exposure with subsequent spore processing (FIG. 6). […] After ramoplanin exposure, the difference in spore counts between samples that were not processed (with presumed intact exposporia) and samples that were processed (without presumed exposporia) was significant (p<0.0001). No difference in spore count was noted when comparing processed spores that had been exposed to ramoplanin to spores exposed only to water (p=0.389).

Compound: CN[C@H](CC(C)C)C(=O)N[C@H]1C(=O)N[C@@H](CC(N)=O)C(=O)N[C@H]2C(=O)N[C@H]3C(=O)N[C@H](C(=O)N[C@H](C(=O)O)c4cc(O)cc(O)c4-c4cc3ccc4O)[C@H](O)c3ccc(c(Cl)c3)Oc3cc2cc(c3O[C@@H]2O[C@H](CO)[C@@H](O)[C@H](O)[C@H]2O[C@H]2C[C@](C)(N)[C@H](O)[C@H](C)O2)Oc2ccc(cc2Cl)[C@H]1O [vancomycin]
- spore counts on continuous exposure, compared to baseline ([1]; vancomycin 500 μg/mL): did not significantly reduce spore counts

Compound: ramoplanin
- organism recovery from 30 min after exposure and wash through day 28 ([2]; 30 min/37 C exposure, 6 washes, stored at 37 C anaerobic): no organisms are recoverable
- inhibition of spore growth relative to controls ([2]; ramoplanin 2 μg/mL, 30 min exposure, over 28 days): no inhibition relative to controls
- mean spore counts ±SEM over 28 days ([2]; ramoplanin 2 μg/mL, 30 min exposure, six washes): 2.3×10^4±4.6×10^2
- spore counts after diluting samples 10× ([2]; ramoplanin 300 μg/mL and 600 μg/mL, 30 min exposure): growth not measurable at previous dilution; also recorded: spore counts similar to the 0 and 2 μg/mL exposed spores
- spore growth when plated undiluted ([2]; ramoplanin 300 μg/mL, 30 min exposure, six washes): no counts; also recorded: no growth
- spore growth when plated undiluted ([2]; ramoplanin 600 μg/mL, 30 min exposure, six washes): no counts; also recorded: no growth
- persistence of bactericidal effect after washes ([3]; multiple washes (×6)): effect persists after multiple washes
- exposure time giving maximal effect ([3]; no apparent difference in effect vs. time): 30 min
- viability of ramoplanin-exposed spores when plated ([3]; ramoplanin 300 μg/mL (below fecal level), ribotype 027): non-viable
- growth-inhibitory effect when exosporia were removed before or after exposure ([4]; after multiple washes): not present
- spore counts, spores processed after exposure (stripped exosporia) ([4]; ramoplanin 300 μg/mL, exosporia removed after exposure): counts equivalent to water exposure
- spore growth, unprocessed spores (intact exosporia) ([4]; ramoplanin 300 μg/mL, no subsequent spore processing): no measurable counts; also recorded: no growth
- C. difficile recovery, spores stripped of the exosporium ([4]; ramoplanin 600 μg/mL, 30 min): high organism recovery
- C. difficile recovery, spores with intact exosporium ([4]; ramoplanin 600 μg/mL, 30 min): non-recoverable C. difficile
- spore counts on continuous exposure ([1]; ramoplanin 300 μg/mL): no counts; also recorded: no growth

Compound: Cc1ncc([N+](=O)[O-])n1CCO [metronidazole]
- spore counts on continuous exposure, compared to baseline ([1]; metronidazole 10 μg/mL): did not significantly reduce spore counts
